Reference: patent publication US8853228B2, “Heterocyclic analogs of propargyl-linked inhibitors of dihydrofolate reductase” (University of Connecticut, priority 2011, dated 2014)
Values after ≈ are worked out from the molar mass of the structure shown. Like-named read-outs stand apart in the source and are kept apart here.

What was measured:
ChDHFR-TS = ChDHFR-TS (Cryptosporidium hominis, UniProt Q27552); assay: ChDHFR enzyme inhibition assay; type: biochemical
Method: (§1) Enzyme and inhibitor were allowed to incubate for 5 min before adding dihydrofolate to initiate the reaction. Enzyme assays were performed at least four times. IC50 values and their standard deviations were calculated in the presence of varying concentrations of inhibitor near the IC50 concentration.
Compounds were evaluated in spectrophotometric enzyme assays using ChDHFR-TS and hDHFR. Inhibition constants (IC50) were measured (see Table 4). […] The compound abbreviations in Table 4 refer to the following compounds: […]

C. glabrata = assay: Antifungal assay (MIC, Alamar Blue); type: cell-based, Candida glabrata; conditions: for MIC: Nakaseomyces glabratus; for antifungal properties against C. glabrata: result in words
Method: Antifungal assays were performed using C. glabrata as a suspension in 50% glycerol at −78° C. For susceptibility testing, a streak of stock culture was made on SDA agar and grown at 30° C. for 48 h. One pure colony of the test organism was recovered from the plate, suspended in appropriate media and grown in a 5 mL shake flask culture. A sample of the shake flask culture was diluted to 1×10^5 cells/mL in media and added to 96-well test plates (100 μL per well) containing test compounds dispensed in DMSO (1 μL). Amphotericin and ketoconazole were used as controls. After an incubation period determined from the strain specific doubling time, Alamar Blue (10 μL) was added, allowed to incubate; each well was scored for dye reduction.
Several representative compounds were also evaluated in thymidine-depleted media. It has been shown that high levels of thymidine interfere with accurate susceptibility testing of antifolates. To compensate for this, antifolates are frequently evaluated in a controlled minimal media with a low thymidine concentration. […] In addition, the compounds were also evaluated for mammalian cell toxicity using MCF-10 and HepG2 cell lines. Cellular selectivity is reported as the IC50 value for the MCF-10 human cell line divided by the MIC value (μg/mL) (Table 8).

Measured solubility = type: physicochemical; conditions: in 200 mcg/mL HPMC and 0.2% DMSO
TgDHFR = TgDHFR (Toxoplasma gondii, UniProt Q07422, DEL43-70); assay: TgDHFR enzyme inhibition assay; type: biochemical
Sequence of TgDHFR (Q07422 71-250, added parts left off, stated change not applied): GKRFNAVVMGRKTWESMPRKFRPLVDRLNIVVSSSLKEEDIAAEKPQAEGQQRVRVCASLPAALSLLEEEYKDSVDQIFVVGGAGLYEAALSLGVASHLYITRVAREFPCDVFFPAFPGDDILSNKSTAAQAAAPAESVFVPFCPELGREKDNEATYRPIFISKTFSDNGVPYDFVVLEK
Method: These residues were removed, leaving a five residue loop region characteristic of several other species of DHFR.
as §1

CgDHFR = CgDHFR (Candida glabrata (strain ATCC 2001 / BCRC 20586 / JCM 3761 / NBRC 0622 / NRRL Y-65 / CBS 138) (Yeast) (Nakaseomyces glabratus), UniProt Q6FPH0); assay: biochemical; conditions: for Selectivity: Table 7, hDHFR vs CgDHFR
Sequence of CgDHFR (Q6FPH0 1-217): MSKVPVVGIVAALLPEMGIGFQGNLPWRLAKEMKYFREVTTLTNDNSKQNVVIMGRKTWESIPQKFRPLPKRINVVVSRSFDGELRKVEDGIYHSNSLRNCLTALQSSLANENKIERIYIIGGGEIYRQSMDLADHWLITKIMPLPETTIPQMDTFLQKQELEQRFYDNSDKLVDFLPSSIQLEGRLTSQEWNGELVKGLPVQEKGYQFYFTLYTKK
Description: CgDHFR: The gene coding CgDHFR was amplified by PCR from C. glabrata genomic DNA obtained from ATCC. The gene was inserted in a pET41 vector that includes a C-terminal histidine tag for nickel affinity chromatography. E. coli cells were transformed and the resulting plasmid was verified by sequencing. The protein was expressed in E. coli BL21(DE3) cells with isopropyl β-D-thiogalactoside induction. Following growth, the cells were lysed with BugBuster (Novagen) and centrifuged; the supernatant was loaded on a Ni-NTA column. The column was washed with 20 mM Tris (pH 8.0)/0.4 M NaCl and the protein was eluted using a gradient of 20 mM Tris (pH 8.0), 0.3 M NaCl, 20% glycerol, 0.1 mM EDTA, 2 mM DTT, 250 mM imidazole. Fractions containing CgDHFR were identified by SDS-PAGE, combined and desalted using a PD-10 column with a buffer containing 20 mM Tris pH 8.0, 20% glycerol, 0.1 mM EDTA and 2 mM DTT. The protein was concentrated to 13 mg/mL.
as §1

hDHFR = hDHFR (Homo sapiens (Human), UniProt P00374); assay: hDHFR enzyme inhibition assay; type: biochemical
Sequence of hDHFR (P00374 whole entry): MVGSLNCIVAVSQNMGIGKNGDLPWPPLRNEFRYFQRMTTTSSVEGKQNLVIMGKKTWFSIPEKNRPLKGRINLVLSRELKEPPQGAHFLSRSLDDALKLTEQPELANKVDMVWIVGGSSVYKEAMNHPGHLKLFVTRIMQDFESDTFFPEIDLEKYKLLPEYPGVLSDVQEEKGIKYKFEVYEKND
Method: hDHFR: The gene for hDHFR was amplified using PCR from cDNA obtained from ATCC. The gene was inserted in a pET41 vector with a C-terminal histidine tag for affinity chromatography. The resulting construct was verified by sequencing. The hDHFR protein was expressed in E. coli and purified using a nickel affinity column.
as §1
(§2) Enzyme inhibition assays were performed by monitoring the rate of NADPH oxidation by the DHFR enzyme at an absorbance of 340 nm. Assays were performed in the presence of saturating concentrations of NADPH and initiated with dihydrofolate. All assays were completed at 25° C. in a buffer containing 20 mM TES pH 7.0, 50 mM KCl, 10 mM 2-mercaptoethanol, 0.5 mM EDTA and 1 mg/mL BSA. Inhibition was measured at least three times with inhibitor concentrations near the IC50 value and the average IC50 value is reported with a standard deviation.

S. aureus DHFR = S. aureus DHFR (Staphylococcus aureus, UniProt P0A017); type: biochemical
Method: as §2

S. pyogenes DHFR = S. pyogenes DHFR (Streptococcus pyogenes, UniProt Q9A091); assay: S. pyogenes DHFR enzyme inhibition assay; type: biochemical
Sequence of S. pyogenes DHFR (Q9A091 1-165): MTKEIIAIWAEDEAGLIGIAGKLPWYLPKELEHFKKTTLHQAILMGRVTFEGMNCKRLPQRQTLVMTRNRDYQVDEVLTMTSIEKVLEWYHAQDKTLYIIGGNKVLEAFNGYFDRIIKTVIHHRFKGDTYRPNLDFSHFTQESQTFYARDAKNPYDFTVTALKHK
Method: as §2

S. aureus 13709 (MRSA) = assay: Antibacterial MIC, broth microdilution with Alamar Blue; type: cell-based, Staphylococcus aureus
Method: (§3) For susceptibility testing, 10 μL of glycerol stock was suspended in a 10 mL shake flask culture of chemically defined Isosensitest broth (Oxoid) supplemented with 2% w/v glucose. A sample of the shake flask culture was diluted to 1×10^6 cells/mL in media and added to 96-well test plates (100 μL per well) containing test compounds dispensed in DMSO (2 μL). After an incubation period (30° C.) determined from the strain specific doubling time, a 0.03% w/v aqueous solution of resazurin (10 μL) was added and the plates were allowed to incubate; each well was then scored for dye reduction.

Streptococcus pyogenes = assay: as above; type: cell-based
Method: as §3

MCF-10 cells = assay: Mammalian cell toxicity, MCF-10; type: cell-based, human; conditions: cytotoxicity
Method: (§4) Adherent cell lines were maintained in Eagle's Minimal Essential Media (Sigma-Aldrich, St. Louis, Mo., USA) with 2 mM glutamine and Earle's Balanced Salt Solution (HyClone, Logan, Utah, USA) adjusted to contain 1.5 g/L sodium bicarbonate, 0.1 mM non-essential amino acids, 1 mM sodium pyruvate and 10% fetal calf serum. Fetal calf serum used in these assays was lot matched throughout. […] Toxicity assays were conducted between passages 10-20. Target compound toxicity was measured by incubating the test compound with the cells for 4 h, washing the cells and finally treating the cells with Alamar Blue. After 12-24 h, the fluorescence of the reduced dye was measured. Fluorescence intensity as a function of test compound concentration was fit to the Fermi equation, using non-linear least squares regression analysis, to estimate IC50 values.

HepG2 cells = assay: Mammalian cell toxicity, HepG2; type: cell-based; conditions: cytotoxicity, Table 6
Method: as §4

mammalian cell lines = conditions: result in words
[1] = Table 4, read-out: IC50 (ChDHFR)
[2] = C. glabrata, Inact: not active at 2 mM (~600 μg/mL), read-out: Antifungal activity MIC
[3] = Table 7, read-out: IC50 (hDHFR)
[4] = Table 7, read-out: IC50 (CgDHFR)
[5] = average of at least three measurements

Sequence of ChDHFR-TS (Q27552 1-521): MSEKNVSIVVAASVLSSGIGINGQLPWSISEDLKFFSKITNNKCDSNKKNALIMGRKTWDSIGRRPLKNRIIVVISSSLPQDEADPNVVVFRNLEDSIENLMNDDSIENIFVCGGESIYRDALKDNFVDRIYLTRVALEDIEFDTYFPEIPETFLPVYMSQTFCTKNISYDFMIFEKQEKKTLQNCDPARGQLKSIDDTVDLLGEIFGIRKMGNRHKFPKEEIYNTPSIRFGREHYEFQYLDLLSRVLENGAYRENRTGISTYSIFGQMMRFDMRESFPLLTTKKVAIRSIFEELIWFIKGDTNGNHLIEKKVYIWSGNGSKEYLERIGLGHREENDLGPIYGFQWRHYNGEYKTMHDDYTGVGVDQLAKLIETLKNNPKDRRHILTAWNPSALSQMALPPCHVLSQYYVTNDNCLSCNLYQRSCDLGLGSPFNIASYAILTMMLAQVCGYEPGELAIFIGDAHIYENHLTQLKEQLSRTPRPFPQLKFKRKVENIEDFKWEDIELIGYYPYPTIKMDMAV

COc1cc(-c2ccccc2)cc(C(C)C#Cc2c(C)nc(N)nc2N)c1 (racemic) [Compound 139, 5-[3-(5-methoxy-biphenyl-3-yl)but-1-yn-1-yl]-6-methylpyrimidine-2,4-diamine]
IC50 (ChDHFR-TS; [1]): 1.8 nM
MIC (C. glabrata; C. glabrata, YM media, read-out: MIC (Cg)): 11 µg/mL (≈ 30.7 µM)
Solubility (Measured solubility; aqueous with cosolvent or surfactant or cyclodextrin, kinetic from dmso stock, read-out: Solubility): 20 µg/mL (≈ 55.8 µM)

COc1cc([C@@H](C)C#Cc2c(C)nc(N)nc2N)cc(OC)c1OC (racemic) [Compound X, 6-methyl-5-[3-(3,4,5-trimethoxyphenyl)but-1-yn-1-yl]pyrimidine-2,4-diamine]
IC50 (ChDHFR-TS; IC50 (ChDHFR), Table 4): 169 ± 6 nM
IC50 (ChDHFR-TS; IC50 against ChDHFR): < 100000 nM
IC50 (ChDHFR-TS; read-out: IC50 against ChDHFR): 38 nM
IC50 (TgDHFR; read-out: IC50 against TgDHFR): < 100000 nM
IC50 (CgDHFR; CgDHFR IC50, Table 3): 25 nM
IC50 (CgDHFR; IC50 against CgDHFR): ≤ 25 nM
MIC (C. glabrata; [2]): 21 µg/mL (≈ 61.3 µM)
antifungal properties against C. glabrata (C. glabrata): exhibited antifungal properties

COc1cc([C@H](C)C#Cc2c(C)nc(N)nc2N)cc(OC)c1OC [138(S), 2,4-Diamino-5-((S)-3-(3,4,5-trimethoxyphenyl)but-1-ynyl)-6-methylpyrimidine]
IC50 (ChDHFR-TS; IC50 against ChDHFR): < 100000 nM
IC50 (TgDHFR): < 100000 nM

COc1cc(CC#Cc2cnc(N)nc2N)cc(OC)c1OC [Compound 1, 5-[3-(3,4,5-trimethoxyphenyl)prop-1-yn-1-yl]pyrimidine-2,4-diamine]
IC50 (ChDHFR-TS; IC50 against ChDHFR): < 100000 nM
IC50 (TgDHFR): < 100000 nM
IC50 (CgDHFR; CgDHFR IC50, Table 3): 33 nM
Antifungal activity MIC (C. glabrata; C. glabrata, Inact: not active at 2 mM (~600 μg/mL)): Inact*

COc1cc(CC#Cc2c(C)nc(N)nc2N)cc(OC)c1OC [Compound 5, 6-methyl-5-[3-(3,4,5-trimethoxyphenyl)prop-1-yn-1-yl]pyrimidine-2,4-diamine]
IC50 (ChDHFR-TS; IC50 against ChDHFR): < 100000 nM
IC50 (hDHFR; Table 3, read-out: hDHFR IC50): 400 nM
IC50 (TgDHFR): < 100000 nM
IC50 (CgDHFR; IC50 against CgDHFR): ≤ 25 nM
IC50 (CgDHFR; Table 3, read-out: CgDHFR IC50): 17 nM
MIC (C. glabrata; [2]): 20 µg/mL (≈ 60.9 µM)
antifungal properties against C. glabrata (C. glabrata): exhibited antifungal properties

COc1cc(C(C)C#Cc2c(C)nc(N)nc2N)cc(N2CCOCC2)c1 (stereo not drawn) [Compound 152]
IC50 (hDHFR; Table 5, average of at least three measurements, read-out: IC50 human): 400 ± 40 nM
IC50 (hDHFR; [3]): 400 ± 40 nM
Selectivity (CgDHFR): 20 ± 4
IC50 (CgDHFR; [4]): 20 ± 3 nM
MIC (Cg) (C. glabrata; C. glabrata, YM media): 12 µg/mL (≈ 32.7 µM)
Selectivity Index (C. glabrata; IC50 (MCF-10)/MIC (C. glabrata)): 330
MIC C. glabrata (C. glabrata; IsoSensitest media supplemented with 2% glucose (thymidine-depleted)): 1.4 µg/mL (≈ 3.81 µM)
Selectivity (h/Sa) (S. aureus DHFR; IC50 (human)/IC50 (pathogen)): 14
IC50 (S. aureus DHFR; [5]): 29 ± 2 nM
Selectivity (h/Sp) (S. pyogenes DHFR; IC50 (human)/IC50 (pathogen)): 15
IC50 (S. pyogenes DHFR; [5]): 26 ± 4 nM
Selectivity MRSA (S. aureus 13709 (MRSA); IC50 (MCF10)/MIC (pathogen)): 159
MIC MRSA (S. aureus 13709 (MRSA); Table 6): 2.9 µg/mL (≈ 7.89 µM)
Selectivity S. pyogenes (Streptococcus pyogenes; IC50 (MCF10)/MIC (pathogen)): 19,250
MIC S. pyogenes (Streptococcus pyogenes; Table 6): 0.024 µg/mL (≈ 0.0653 µM)
IC50 (MCF-10 cells; Table 6): 462000 nM
IC50 (MCF-10 cells; Table 8): 462000 nM
IC50 (HepG2 cells): 494000 nM
Solubility (Measured solubility): 80 µg/mL (≈ 218 µM)

CCc1nc(N)nc(N)c1C#CC(C)c1cc(OC)cc(N2CCOCC2)c1 (stereo not drawn) [Compound 153]
IC50 (hDHFR; [3]): 250 ± 4 nM
Selectivity (CgDHFR): 11 ± 1
IC50 (CgDHFR; [4]): 22 ± 2 nM
MIC (Cg) (C. glabrata; C. glabrata, YM media): 12 µg/mL (≈ 31.5 µM)
Solubility (Measured solubility): 80 µg/mL (≈ 210 µM)

COc1cc(C(C)C#Cc2c(C)nc(N)nc2N)cc(N2CCNCC2)c1 (stereo not drawn) [Compound 159]
IC50 (hDHFR; [3]): 270 ± 46 nM
Selectivity (CgDHFR): 1.9 ± 0.4
IC50 (CgDHFR; [4]): 143 ± 10 nM
MIC (Cg) (C. glabrata; C. glabrata, YM media): Inact
Solubility (Measured solubility): 60 µg/mL (≈ 164 µM)

COc1cc(-c2c(C(C)C)cccc2C(C)C)ccc1C(C)C#Cc1c(C)nc(N)nc1N (stereo not drawn) [Compound F26I, 5-[3-(3-methoxy-2′6′-diisopropylbiphenyl-4-yl)but-1-yn-1-yl]-6-methylpyrimidine-2,4-diamine]
Selectivity Ratio (IC50 ChDHFR/IC50 hDHFR) (ChDHFR-TS; Table 4): 262
IC50 (ChDHFR-TS; [1]): 16 nM
IC50 (hDHFR; Table 4, read-out: IC50 (hDHFR)): 4200 ± 0.1 nM
mammalian cell toxicity (mammalian cell lines): display mammalian cell toxcity
